# In patent US20260008818A1, “CYCLIC PEPTIDE OR SALT THEREOF, AND USES THEREOF” (FUJIFILM Corporation, priority 2023, published 2026):
# Bridge positions count the residues as written; N and C are the ends. Ends that are not written are not given here. COCH2 = acetyl group that carries the bridge
# Tested on: Recombinant Human FGFR1 alpha (IIIc) Fc Chimera Protein
# Experiment: Binding affinity of enzymatically synthesized cyclic peptide to FGFR by ELISA
# Conditions: luminescence signal at reaction concentration 10 nmol/L, SEQ ID NO: 39 standardized to 1, enzyme synthesis product
# Summary of the method: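 Graded A–D from luminescence at 10 nmol/L peptide, expressed relative to SEQ ID NO: 39 after subtracting wells lacking receptor. Read-out used anti-Myc antibody (2 h, RT) with chemiluminescent substrate, following 3 h RT binding of peptide to immobilized FGFR1α(IIIc)-Fc, 5 ng per well.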
row,Evaluation result of binding affinity to FGFR,Substance
1,C (0.1 or more and less than 0.5),310 (YCTWERLIFLGHIAPFWVK(COCH2)R; thioether 2-19 (inferred)) [compound 310]
2,D (less than 0.1),37 (CDRTLLYYRLSK(COCH2); thioether 1-12; not fully specified; printed as (C)-DRTLLYYRLS-(K(acetyl))) [compound 37]
3,A (0.7 or more),83 (HCPYERLQFHGHEAPFRVKV; not fully specified; Description of Artificial Sequence: Cyclic peptide) [compound 83]
4,A (0.7 or more),164 (HCSYERLQFLGHEAPFRVK(COCH2)V; thioether 2-19 (inferred)) [compound 164]
5,C (0.1 or more and less than 0.5),358 (NCWVQWFLSGHVVPFLVSLK(COCH2)S; thioether 2-20) [compound 358]
6,B (0.5 or more and less than 0.7),248 (QCWKRVRVYGFFAPFVHK(COCH2)I; thioether 2-18 (inferred)) [compound 248]
7,B (0.5 or more and less than 0.7),198 (HCSYERLQFHGHEAPFQVK(COCH2)V; thioether 2-19 via Ac) [compound 198]
8,A (0.7 or more),182 (HCSYERLQFHGHYAPFRVK(COCH2)V; thioether 2-19 via Ac) [compound 182]
9,B (0.5 or more and less than 0.7),40 (QCDVWYWLGHRVPFHPVK(COCH2)V; thioether 2-18 (inferred)) [compound 40]
10,C (0.1 or more and less than 0.5),293 (HCSYERLQFHGHEAPFRKK(COCH2)V; thioether 2-19 (inferred)) [compound 293]
11,B (0.5 or more and less than 0.7),334 (HCSYERLIFLGHIAPFWVK(COCH2)V; thioether 2-19 (inferred)) [compound 334]
12,A (0.7 or more),84 (HCLYERLQFHGHEAPFRVKV; not fully specified; Description of Artificial Sequence: Cyclic peptide) [compound 84]
13,C (0.1 or more and less than 0.5),315 (HCTYERLIFLGHIAPFWVK(COCH2)R; thioether 2-19 (inferred)) [compound 315]
14,A (0.7 or more),234 (HK(COCH2)TWERLRFLGHIAPFWVCR; thioether 2-19 (inferred)) [compound 234]
15,A (0.7 or more),134 (HCSYHRLQFHGHEAPFRVK(COCH2)V; thioether 2-19 (inferred)) [compound 134]
16,B (0.5 or more and less than 0.7),209 (HCSYERLQFHGHEAPFRHK(COCH2)V; thioether 2-19 via Ac; not fully specified) [compound 209]
17,A (0.7 or more),194 (HCSYERLQFHGHEAPFFVK(COCH2)V; thioether 2-19 via Ac) [compound 194]
18,A (0.7 or more),370 (CYERLIFHGHEAPFWVK(COCH2)V; thioether 1-17) [compound 370]

# Second part, the substance before the results:
row,Substance,Evaluation result of binding affinity to FGFR
1,321 (HCTWERLIFLGHVAPFWVK(COCH2)R; thioether 2-19 (inferred)) [compound 321],C (0.1 or more and less than 0.5)
2,108 (HCSYERLQFHQHEAPFRVK(COCH2)V; thioether 2-19 (inferred)) [compound 108],C (0.1 or more and less than 0.5)
3,361 (QCPWSTTQQVPFIK(COCH2)V; thioether 2-14) [compound 361],C (0.1 or more and less than 0.5)
4,100 (HCSFERLQFHGHEAPFRVK(COCH2)V; thioether 2-19 (inferred)) [compound 100],A (0.7 or more)
5,131 (HCSYTRLQFHGHEAPFRVK(COCH2)V; thioether 2-19 (inferred)) [compound 131],A (0.7 or more)
6,169 (HCSYERLQFWGHEAPFRVK(COCH2)V; thioether 2-19 (inferred)) [compound 169],A (0.7 or more)
7,36 (CRALLRGAPFHLAEK(COCH2); thioether 1-15; not fully specified; printed as (C)-RALLRGAPFHLAE-(K(acetyl))) [compound 36],D (less than 0.1)
8,221 (HCSYERLQFHGHEAPFRVK(COCH2)E; thioether 2-19 (inferred)) [compound 221],A (0.7 or more)
9,124 (HCSYVRLQFHGHEAPFRVK(COCH2)V; thioether 2-19 (inferred)) [compound 124],B (0.5 or more and less than 0.7)
10,283 (KCSYERLQFHGHEAPFRVK(COCH2)V; thioether 2-19 (inferred)) [compound 283],B (0.5 or more and less than 0.7)
11,259 (GCRPVVTHHPWAPFWVVTK(COCH2)E; thioether 2-19 (inferred)) [compound 259],B (0.5 or more and less than 0.7)
12,284 (HCKYERLQFHGHEAPFRVK(COCH2)V; thioether 2-19 (inferred)) [compound 284],A (0.7 or more)
13,308 (HCSYERLQFHGHEAPFRMK(COCH2)V; thioether 2-19 (inferred)) [compound 308],C (0.1 or more and less than 0.5)
14,369 (HASYERCIFHGHEAPFWVK(COCH2)V; thioether 7-19) [compound 369],C (0.1 or more and less than 0.5)
15,351 (WCWQAPFNIVVNRKVSVLIVK(COCH2)G; thioether 2-21) [compound 351],C (0.1 or more and less than 0.5)
16,207 (HCSYERLQFHGHEAPFRSK(COCH2)V; thioether 2-19 via Ac; not fully specified) [compound 207],C (0.1 or more and less than 0.5)
17,251 (DCIWRVTISGHLAPFWFK(COCH2)Y; thioether 2-18 (inferred)) [compound 251],B (0.5 or more and less than 0.7)
18,360 (DCWGWHREFVPFIK(COCH2)I; thioether 2-14) [compound 360],B (0.5 or more and less than 0.7)
19,312 (HCVWERLIFLGHIAPFWVK(COCH2)R; thioether 2-19 (inferred)) [compound 312],C (0.1 or more and less than 0.5)

row,Substance,Evaluation result of binding affinity to FGFR
1,276 (QCYVQLYVWGHPAPFYWDK(COCH2)S; thioether 2-19 (inferred)) [compound 276],C (0.1 or more and less than 0.5)
2,225 (HCTWERLIFLGHIAPFWVK(COCH2)R; thioether 2-19 (inferred)) [compound 225],C (0.1 or more and less than 0.5)
3,327 (HCSYERLIFHGHEAPFWVK(COCH2)V; thioether 2-19 (inferred)) [compound 327],A (0.7 or more)
4,139 (HCSYEQLQFHGHEAPFRVK(COCH2)V; thioether 2-19 (inferred)) [compound 139],B (0.5 or more and less than 0.7)
5,183 (HCSYERLQFHGHWAPFRVK(COCH2)V; thioether 2-19 via Ac) [compound 183],A (0.7 or more)
6,140 (HCSYETLQFHGHEAPFRVK(COCH2)V; thioether 2-19 (inferred)) [compound 140],C (0.1 or more and less than 0.5)
7,356 (ACWLRHIYQGHKAPFLIWSTK(COCH2)S; thioether 2-21) [compound 356],B (0.5 or more and less than 0.7)
8,186 (HCSYERLQFHGHSAPFRVK(COCH2)V; thioether 2-19 via Ac) [compound 186],A (0.7 or more)
9,330 (HCSYERLVFHGHIAPFWVK(COCH2)V; thioether 2-19 (inferred)) [compound 330],A (0.7 or more)
10,165 (HCSYERLQFIGHEAPFRVK(COCH2)V; thioether 2-19 (inferred)) [compound 165],A (0.7 or more)
11,241 (HK(COCH2)TWERLIFLGHIAPFWVCV; thioether 2-19 (inferred)) [compound 241],B (0.5 or more and less than 0.7)
12,262 (FCYQRLYFQGHIAPYWFVK(COCH2)D; thioether 2-19 (inferred)) [compound 262],B (0.5 or more and less than 0.7)
13,365 (NCWGYTYIIPFNYISK(COCH2)T; thioether 2-16) [compound 365],B (0.5 or more and less than 0.7)
14,359 (WCPWGDIHVVPFHK(COCH2)V; thioether 2-14) [compound 359],C (0.1 or more and less than 0.5)
15,261 (QCQWNIYRHQWAPFWVIEK(COCH2)S; thioether 2-19 (inferred)) [compound 261],C (0.1 or more and less than 0.5)
16,117 (HCSYERLQFHGHEADFRVK(COCH2)V; thioether 2-19 (inferred)) [compound 117],B (0.5 or more and less than 0.7)
17,74 (WCSYERLQFHGHEAPFRVK(COCH2)V; thioether 2-19 (inferred)) [compound 74],A (0.7 or more)
18,314 (HCTFERLIFLGHIAPFWVK(COCH2)R; thioether 2-19 (inferred)) [compound 314],C (0.1 or more and less than 0.5)
19,215 (HCSYERLQFHGHEAPFRVK(COCH2)W; thioether 2-19 via Ac; not fully specified) [compound 215],B (0.5 or more and less than 0.7)
